From patent US20240391871A1, “SUBSTITUTED HYDROXYMETHYL PYRROLIDINES AND MEDICAL USES THEREOF” (ATROGI AB, priority 2021, published 2024) come the findings set out here.

SMILES strings stand for the structures. Where a name gives a salt, the structure may show the parent alone.

One test concerns L6-myotubes. Put plainly: Glucose uptake (3H-2-deoxyglucose) in differentiated L6-myotubes. Type of test: cell-based. The conditions noted are these: compound 1×10^−5 M; for Emax at 10 µM: read-out: Biological example 1: glucose uptake, activity compared to that of isoproterenol. On the procedure: (§1) L6-myoblasts were grown in Dulbecco's Modified Eagle's Medium (DMEM) containing 1 g/L glucose supplemented with 10% fetal bovine serum, 2 mM L-Glutamine, 50 U/mL penicillin, 50 μg/mL streptomycin and 10 mM HEPES. Cells were plated at 1×10^5 cells per mL in 24-well plates. After reaching 90% confluence the cells were grown in medium containing 2% FBS for 7 days where upon cells differentiated into myotubes.
Differentiated L6-myotubes were serum-starved overnight in medium containing 0.5% fatty-acid free BSA and stimulated with an agonist, with a final concentration of 1×10^−5 M. After 1 h 40 min the cells were washed with warm glucose free medium or PBS twice and another portion of agonist was added to the glucose free medium. After 20 min the cells were exposed to 50 nM ^3H-2-deoxyglucose for 10 min before washed with ice cold glucose free medium or PBS three times and lysed with 0.2 M NaOH, 400 μL/well, for 1 h at 60° C. The cell lysate was mixed with 4 mL scintillation buffer (Emulsifier Safe, Perkin Elmer) and the radioactivity was detected in a β-counter (Tri-Carb 4810TR, Perkin Elmer). The activity for each compound is compared to that of isoproterenol.

Test [1] deals with Intracellular cAMP levels. As to the kind of experiment: Measurement of intracellular cAMP levels in differentiated L6 cells. Conditions: compound 1×10^−5 M, 15 min; for Emax at 10 µM: Rattus norvegicus, L6, 0.25 h, read-out: Biological example 2: intracellular cAMP levels, activity compared to that of isoproterenol. Type of test: cell-based. The procedure: as §1
Differentiated cells were serum-starved overnight and stimulated with an agonist, final concentration 1×10^−5 M, for 15 min in stimulation buffer (HBSS supplemented with 1% BSA, 5 mM HEPES and 1 mM IBMX, pH 7.4). The medium was aspirated and 100 μL of 95% EtOH was added to each well of the 24-well plate and cells were kept at −20° C. overnight. The EtOH was allowed to evaporate and 500 μL of lysis buffer (1% BSA, 5 mM HEPES and 0.3% Tween-20, pH 7.4) was added to each well. The plate was kept at −80° C. for 30 min and then at −20° C. until the day of detection when the samples were thawed. Intracellular cAMP levels were detected using an alpha screen cAMP kit (6760635D from Perkin Elmer). The activity for each compound is compared to that of isoproterenol.
For orientation: Changes in cAMP serve as a functional read-out for many G protein-coupled receptors.

Regarding `CO[C@H]1CC[C@H](C[C@H]2CC[C@H]([C@@H](O)c3cccc(F)c3)N2)CC1.Cl` [Example 4, (S)-(3-Fluorophenyl)((2R,5R)-5-(((1r,4R)-4-methoxycyclohexyl)-methyl) -pyrrolidin-2-yl)methanol hydrochloride], the “Biological example 1: glucose uptake, activity compared to that of isoproterenol” value in the test with L6-myotubes is “+ (between 50 and 25%)”. Besides, the “Biological example 2: intracellular cAMP levels, activity compared to that of isoproterenol” value in test [1] is “− (less than 25%)”.
Regarding `CO[C@H]1CC[C@H](C[C@@H]2CC[C@H]([C@H](O)c3ccccc3F)N2)CC1.Cl` [Example 5, (R)-(2-Fluorophenyl)((2R,5S)-5-(((1r,4S)-4-methoxycyclohexyl)methyl-(pyrrolidin-2-yl)methanol hydrochloride], the Emax at 10 µM was more than 75% in the test on L6-myotubes and less than 25% in test [1].
For `CO[C@H]1CC[C@H](C[C@@H]2CC[C@H]([C@@H](O)c3ccccc3F)N2)CC1` [Example 6, (S)-(2-Fluorophenyl)((2R,5S)-5-(((1r,4S)-4-methoxycyclohexyl)methyl) -pyrrolidin-2-yl)methanol hydrochloride], in that order: 25 to 50% and less than 25%.
Turning to `CO[C@H]1CC[C@H](C[C@H]2CC[C@H]([C@@H](O)c3ccccc3F)N2)CC1` [Example 8, (S)-(2-Fluorophenyl)((2R,5R)-5-(((1r,4S)-4-methoxycyclohexyl)methyl) -pyrrolidin-2-yl)methanol hydrochloride], the Emax at 10 µM was 50 to 75% in the test on L6-myotubes and less than 25% in test [1].
As for `CO[C@H]1CC[C@H](C[C@@H]2CC[C@H]([C@H](O)c3cncc(F)c3)N2)CC1` [Example 9, (R)-(5-Fluoropyridin-3-yl)(2R,5S)-5-(((1r,4S)-4-methoxycyclohexyl)methyl) -pyrrolidin-2-yl)methanol dihydrochloride], the figures for the Emax at 10 µM (with L6-myotubes; in test [1]) were 25 to 50% and less than 25%, respectively.
For `CO[C@H]1CC[C@H](C[C@@H]2CC[C@H]([C@@H](O)c3cncc(F)c3)N2)CC1` [Example 10, (S)-(5-Fluoropyridin-3-yl)((2R,5S)-5-(((1r,4S)-4-methoxycyclohexyl) -methyl)pyrrolidin-2-yl)methanol dihydrochloride], in that order: 25 to 50% and less than 25%.
For `CO[C@H]1CC[C@H](C[C@H]2CC[C@H]([C@H](O)c3cncc(F)c3)N2)CC1` [Example 11, (R)-(5-Fluoropyridin-3-yl)((2R,5R)-5-(((1r,4S)-4-methoxycyclohexyl) -methyl)pyrrolidin-2-yl)methanol dihydrochloride], the Emax at 10 µM was more than 75% in the test with L6-myotubes and less than 25% in test [1].
Take `CO[C@H]1CC[C@H](C[C@H]2CC[C@H]([C@@H](O)c3cncc(F)c3)N2)CC1` [Example 12, (S)-(5-Fluoropyridin-3-yl)(2R,5R)-5-(((1r,4S)-4-methoxycyclohexyl) -methyl)pyrrolidin-2-yl)methanol dihydrochloride]: the Emax at 10 µM was 25 to 50% in the test on L6-myotubes and less than 25% in test [1].
Consider `COc1ccc(C[C@@H]2CC[C@H]([C@H](O)c3cccc(F)c3)N2)cc1` [Example 13, (R)-(3-Fluorophenyl)((2R,5S)-5-(4-methoxybenzyl)pyrrolidin-2-yl)methanol], for which the Emax at 10 µM with L6-myotubes was more than 75%; in test [1], less than 25%.
Regarding `COc1ccc(C[C@@H]2CC[C@H]([C@@H](O)c3cccc(F)c3)N2)cc1` [Example 14, (S)-(3-Fluorophenyl)((2R,5S)-5-(4-methoxybenzyl)pyrrolidin-2-yl)methanol hydrochloride], the Emax at 10 µM in the test with L6-myotubes is more than 75%; in test [1], less than 25%.
On to `COc1ccc(C[C@H]2CC[C@H]([C@H](O)c3cccc(F)c3)N2)cc1` [Example 15, (R)-(3-Fluorophenyl)((2R,5R)-5-(4-methoxybenzyl)pyrrolidin-2-yl)methanol], for which the Emax at 10 µM was more than 75% in the test with L6-myotubes and less than 25% in test [1].
Consider `COc1ccc(C[C@H]2CC[C@H]([C@@H](O)c3cccc(F)c3)N2)cc1` [Example 16, (S)-(3-Fluorophenyl)((2R,5R)-5-(4-methoxybenzyl)pyrrolidin-2-yl)methanol], for which the Emax at 10 µM with L6-myotubes is 50 to 75%; in test [1], less than 25%.
With `CO[C@H]1CC[C@H](C[C@@]2(C)CC[C@H]([C@H](O)c3cccc(F)c3)N2)CC1` [Example 17, (R)-(3-Fluorophenyl)((2R,5R)-5-(((1r,4R)-4-methoxycyclohexyl)methyl)-5-methylpyrrolidin-2-yl)methanol], the values for the Emax at 10 µM (with L6-myotubes; in test [1]) were more than 75% and 25 to 50%, respectively.
Consider `CO[C@H]1CC[C@H](C[C@@]2(C)CC[C@H]([C@@H](O)c3cccc(F)c3)N2)CC1` [Example 18, (S)-(3-Fluorophenyl)(2R,5R)-5-(((1r,4R)-4-methoxycyclohexyl)methyl)-5-methylpyrrolidin-2-yl)methanol hydrochloride], for which the Emax at 10 µM was 50 to 75% with L6-myotubes and less than 25% in test [1].
As for `COc1ccc(C[C@@]2(C)CC[C@H]([C@H](O)c3cccc(F)c3)N2)cc1` [Example 19, (R)-(3-Fluorophenyl)((2R,5R)-5-(4-methoxybenzyl)-5-methylpyrrolidin-2-yl)methanol hydrochloride], the Emax at 10 µM in the test with L6-myotubes was more than 75%; in test [1], 25 to 50%.
In the case of `COc1ccc(C[C@@]2(C)CC[C@H]([C@@H](O)c3cccc(F)c3)N2)cc1` [Example 20, (S)-(3-Fluorophenyl)((2R,5R)-5-(4-methoxybenzyl)-5-methylpyrrolidin-2-yl)methanol hydrochloride], the values for the Emax at 10 µM (in the test on L6-myotubes; in test [1]) were more than 75% and less than 25%, respectively.
For `COc1ccc(C[C@@H]2CC[C@H]([C@H](O)c3cncc(F)c3)N2)cc1` [Example 21, (R)-(5-Fluoropyridin-3-yl)((2R,5S)-5-(4-methoxybenzyl)pyrrolidin-2-yl) -methanol dihydrochloride], in that order: more than 75% and less than 25%.
For `COc1ccc(C[C@@H]2CC[C@H]([C@@H](O)c3cncc(F)c3)N2)cc1` [Example 22, (S)-(5-Fluoropyridin-3-yl)((2R,5S)-5-(4-methoxybenzyl)pyrrolidin-2-yl)methanol dihydrochloride] the same measures were more than 75% and less than 25%.
`COc1ccc(C[C@H]2CC[C@H]([C@H](O)c3cncc(F)c3)N2)cc1` [Example 23, (R)-(5-Fluoropyridin-3-yl)(2R,5R)-5-(4-methoxybenzyl)pyrrolidin-2-yl)methanol dihydrochloride]: the values for the Emax at 10 µM (in the test with L6-myotubes; in test [1]) were more than 75% and less than 25%, respectively.
In the case of `COc1ccc(C[C@H]2CC[C@H]([C@@H](O)c3cncc(F)c3)N2)cc1` [Example 24, (S)-(5-Fluoropyridin-3-yl)((2R,5R)-5-(4-methoxybenzyl)pyrrolidin-2-yl)methanol dihydrochloride], the Emax at 10 µM in the test with L6-myotubes is more than 75%; in test [1], less than 25%.
In the case of `O[C@H](c1cccc(F)c1)[C@H]1CC[C@@H](Cc2ccc(Cl)cc2)N1` [Example 25, (R)-((2R,5S)-5-(4-Chlorobenzyl)pyrrolidin-2-yl)(3-fluorophenyl)methanol hydrochloride], the results for the Emax at 10 µM (with L6-myotubes; in test [1]) were more than 75% and less than 25%, respectively.
On to `O[C@@H](c1cccc(F)c1)[C@H]1CC[C@@H](Cc2ccc(Cl)cc2)N1` [Example 26, (S)-((2R,5S)-5-(4-Chlorobenzyl)pyrrolidin-2-yl)(3-fluorophenyl)methanol hydrochloride], for which the Emax at 10 µM in the test on L6-myotubes was 50 to 75%; in test [1], less than 25%.
With `O[C@H](c1cccc(F)c1)[C@H]1CC[C@H](Cc2ccc(Cl)cc2)N1` [Example 27, (R)-((2R,5R)-5-(4-Chlorobenzyl)pyrrolidin-2-yl)(3-fluorophenyl)methanol hydrochloride], the values for the Emax at 10 µM (in the test with L6-myotubes; in test [1]) were more than 75% and less than 25%, respectively.
`O[C@@H](c1cccc(F)c1)[C@H]1CC[C@H](Cc2ccc(Cl)cc2)N1` [Example 28, (S)-((2R,5R)-5-(4-Chlorobenzyl)pyrrolidin-2-yl)(3-fluorophenyl)methanol hydrochloride]: the Emax at 10 µM in the test on L6-myotubes was 50 to 75%; in test [1], less than 25%.
Take `O[C@H](c1cncc(F)c1)[C@H]1CC[C@@H](Cc2ccc(Cl)cc2)N1` [Example 29, (R)-((2R,5S)-5-(4-Chlorobenzyl)pyrrolidin-2-yl)(5-fluoropyridin-3-yl) -methanol dihydrochloride]: the results for the Emax at 10 µM (with L6-myotubes; in test [1]) were more than 75% and less than 25%, respectively.
